Reference: US20030124636A1, “Individualization of therapy with antiarrhythmics” (McGill University, priority 2001, published 2003)
Where two headings read alike, the source gives them in different places. Marks after values point to notes of the source that are not given here.

Tests used:
[1] = system: AAMU-Ab; assay: Competitive antigen ELISA, cross-reactivity of AAMU-Ab; assay type: binding, rabbit; details: 0 = absence of inhibition or inhibition no higher than 40% at highest concentration tested (5 × 10^−3 M)
Procedure: (§1) Buffers and water without additives are filtered through millipore filters and kept for 1 week. BSA, antibodies, Tween™ 20 and horse radish peroxidase conjugates are added to these buffers and water just prior to use. Urine samples are usually collected 4 hours after drinking a cup of coffee (instant or brewed with approximately 100 mg of caffeine per cup) and stored at −80° C. The urine samples are diluted 10 times with sodium phosphate buffer (620 mosm, pH 7.50) and are subsequently diluted with water to give concentrations of AAMU and 1X no higher than 3×10^−6 M in the ELISA. All the pipettings are done with an eight-channel pipette, except those of the antibody and sample solutions. Starting with the last well, 100 μL of a carbonate buffer (100 mM, pH 9.6) containing 2.5 μg mL^−1 antibodies are added to each well. After 90 min. at room temperature, the wells are washed three times with […] of TPB: isotonic sodium phosphate buffer (310 mosm, pH 7.50) containing 0.05% Tween™ 20.
(§2) After the initial wash, unoccupied sites are blocked by incubation for 90 min. at room temperature with 100 μL TBP containing 3% BSA. The wells are washed four times with 100 μL TPB. […] The microplate is gently shaken with an orbital shaker at room temperature for 3-4 hours. The wells are washed three times with 100 μL TPB containing 1% BSA and three times with water containing 0.05% Tween™20. To the washed plate is added 150 μL of a substrate buffer composed of citric acid (25 mM) and sodium phosphate dibasic buffer (50 mM, pH 5.0) containing 0.06% hydrogen peroxide and 0.04% o-phenylenediamine hydrochloride.
(§3) Buffers and water without additives were filtered through millipore filters and kept for 1 week. BSA, antibodies, Tween™20 and horse radish peroxidase conjugates were added to these buffers and water just prior to use. Urine samples were usually collected 4 hours after drinking a cup of coffee (instant or brewed with approximately 100 mg of caffeine per cup) and stored at −80° C. They were diluted 10 times with sodium phosphate buffer (620 mosm, pH 7.50) and were subsequently diluted with water to give concentrations of AAMU and 1X no higher than 3×10^−6 M in the ELISA. All the pipettings were done with an eight-channel pipette, except those of the antibody and sample solutions. Starting with the last well, 100 μL of a carbonate buffer (100 mM, pH 9.6) containing 2.5 μg mL^−1 antibodies was pipetted. After 90 min. at room temperature, the wells were washed three times with 100 μL of TPB: isotonic sodium phosphate buffer (310 mosm, pH 7.50) containing 0.05% Tween™ 20.
(§4) After the initial wash, unoccupied sites were blocked by incubation for 90 min. at room temperature with 100 μL TBP containing 3% BSA. The wells were washed four times with 100 μL TPB. […] The microplate was gently shaken with an orbital shaker at room temperature for 3-4 hours. The wells were washed three times with 100 μL with TPB containing 1% BSA and three times with water containing 0.05% Tween™ 20. To the washed plate was added 150 μL of a substrate buffer composed of citric acid (25 mM) and sodium phosphate dibasic buffer (50 mM, pH 5.0) containing 0.06% hydrogen peroxide and 0.04% o-phenylenediamine hydrochloride. After 20 min. at room temperature with shaking, the reaction was stopped with 50 μL of 2.5 N HCl.
(§5) The cross reactivities of AAMU-Ab and 1X-Ab were tested using a wide variety of caffeine metabolites and structural analogs (Table 2 below).

[2] = system: 1X-Ab; assay: Competitive antigen ELISA, cross-reactivity of 1X-Ab; assay type: binding, rabbit; details: 0 = absence of inhibition or inhibition no higher than 40% at highest concentration tested (5 × 10^−3 M)
Procedure: as §1, §2, §3, §4, §5

[3] = cited from earlier work

| Structure (SMILES) | % Cross-Reaction AAMU-Ab [1] | % Cross-Reaction 1X-Ab [2] [%] | adverse reactions to dapsone ([3]; fast acetylators) [%] | adverse reactions to dapsone ([3]; slow acetylators) [%] |
| --- | --- | --- | --- | --- |
| Cn1cnc2[nH]c(=O)[nH]c(=O)c21 [7-Methyl Xanthine] | 0% | 0 |  |  |
| Nc1ccc(S(=O)(=O)c2ccc(N)cc2)cc1 [dapsone] |  |  | 17 | 46 |
| CC(=O)Nc1c(N)[nH]c(=O)[nH]c1=O [5-Acetamino-6-amino-uracil] | 0.6% | 0 |  |  |
| Cn1c(=O)c2[nH]cnc2n(C)c1=O [1,3-Dimethyl Xanthine (Theophylline), 1,3-Dimethyl Xanthine] | 0% | 0.2 |  |  |
| CC(=O)Nc1c(N)n(C)c(=O)[nH]c1=O [5-Acetamino-6-amino-1-methyluracil] | 100% | 0 |  |  |
| O=c1[nH]cnc2nc[nH]c12 [Hypoxanthine] | 0% | 0 |  |  |
| CC(=O)Nc1c(N)n(C)c(=O)n(C)c1=O [5-Acetamino-6-amino-1,3-dimethyluracil] | 0% | 0 |  |  |
| Cn1c(=O)[nH]c2nc[nH]c2c1=O [1-Methyl Xanthine (1X), 1-Methyl Xanthine] | 0% | 100 |  |  |
| Cn1c(=O)[nH]c2[nH]c(=O)[nH]c2c1=O [1-Methyluric acid] | 0% | 11 |  |  |
| Nc1nc2nc[nH]c2c(=O)[nH]1 [Guanine] | 0% | 0 |  |  |
| Cn1c(=O)[nH]c2[nH]c(=O)n(C)c2c1=O [1,7-Dimethyluric acid] | 0% | 0 |  |  |
| O=c1cc[nH]c(=O)[nH]1 [Uracil] | 0% | 0 |  |  |
| O=c1[nH]c(=O)c2[nH]cnc2[nH]1 [Xanthine] | 0^a % | 0 |  |  |
| Cn1c(=O)[nH]c(=O)c2[nH]cnc21 [3-Methyl Xanthine] | 0% | 0 |  |  |
| Cn1cnc2c1c(=O)[nH]c(=O)n2C [3,7-Dimethyl Xanthine (Theobromine), 3,7-Dimethyl Xanthine] | 0% | 0 |  |  |
| Cn1c(=O)c2c(ncn2C)n(C)c1=O [1,3,7-Trimethyl Xanthine (Caffeine), 1,3,7-Trimethyl Xanthine] | 0% | 0 |  |  |
| Cn1c(=O)[nH]c2ncn(C)c2c1=O [1,7-Dimethyl Xanthine (Paraxanthine), 1,7-Dimethyl Xanthine] | 0% | 0.5 |  |  |
| Cc1nc2[nH]c(=O)[nH]c(=O)c2[nH]1 [8-Methyl Xanthine] | 0% | 0 |  |  |
| O=c1[nH]c(=O)c2[nH]c(=O)[nH]c2[nH]1 [Uric acid] | 0% | 0 |  |  |
